From patent US20060183221A1, “Method for neural differentiation of embryonic stem cells using protease passaging techniques” (priority 2003, published 2006)

Legend:
[1] = system: differentiating mouse ES cells (ES-J1); test: Apoptosis (TUNEL staining) in differentiating mouse ES cells incubated with ceramide analogs; format: cell-based; conditions: 15 hours with 75 μM S16 or S18, or 35 μM C2-ceramide
Experimental: In vitro neural differentiation of mouse ES cells (ES-J1, ES-D3) followed a serum deprivation protocol as described previously (Hancock, et al., 2000, Biochem. Biophys. Res. Commun. 271: 418-421). The differentiation stages are outlined in FIG. 2. Briefly, ES cells were grown on gamma-irradiated feeder fibroblasts for four days in Knockout DMEM/15% Knockout serum replacement, supplemented with ESGRO (LIF; Chemicon; Cat No. ESG1106) at a concentration of […] medium. ES cells were then grown for another four days on gelatin-coated bacterial culture dishes without a fibroblast feeder layer, and were then grown for three days in Knockout DMEM/15% heat-inactivated ES qualified Fetal Bovine Serum, supplemented with 10^3 units LIF per ml of medium. Upon trypsinization, ES cells were transferred to bacterial culture dishes without gelatin, and embryoid body (EB) formation was induced for four days in Knockout DMEM/10% heat-inactivated ES qualified FBS without LIF (EB4 stage). On the fifth day, floating and loosely attached EBs were rinsed off and transferred to tissue culture dishes. The EBs were allowed to attach to the tissue culture dish surface by incubation for another 24 hours in Knockout DMEM with 10% heat-inactivated ES qualified fetal bovine serum. Neural differentiation due to serum deprivation was induced by cultivation of the EBs for three days in DMEM/F12 (50/50), supplemented with 1×N2 (Invitrogen/Life Technologies; Cat No. 17502, dilution of 1: 100) but without serum (EB8 stage). Serum-deprived EBs were then trypsinized, plated on poly-L-ornithine/laminin-coated tissue culture dishes and grown for four days in DMEM/F12 (50/50), supplemented with N2 and 10 ng/ml FGF-2, but without serum. his incubation period is referred to as neuroprogenitor (NP) stage due to commitment of neuroepithelial precursor cells to neuroprogenitor cells. These cells have committed during the EB stages and were expanded during the NP stage. NPs grown for 48 hours upon replating of trypsinized EBs were referred to as the NP2 stage. On the fifth day of NP formation, the medium was changed to Neurobasal (Invitrogen/Life Technologies; Cat No. 21103-049), with 5% heat-inactivated FBS, and the cells were incubated for another seven days. During this time, NPs fully differentiate to glial cells and neurons. Cells cultured for 24 hours or 96 hours upon changing the medium were referred to as the D1 or D4 stage, respectively.
ES cells were cultured and differentiated to the EB4, EB8, NP2, or D4 stage following the protocol as described above. The ceramide analog S18 was dissolved in ethanol at a concentration of 100 mM and then added to the cells at a final concentration of 75 μM in medium. The cells at the EB8 stage were incubated for 48 hours in the presence of the ceramide analog and were then transplanted into mouse brains.
Differentiating ES cells were grown on cover slips and fixed with 4% paraformaldehyde in phosphate-buffered saline (PBS). Fixed cells were permeabilized with 0.5% Triton X-100 in PBS for 5 minutes at room temperature and unspecific binding sites were saturated by incubation with 3% ovalbumin in PBS for 1 hour at 37° C. The cover slips were then incubated with 5 μg/ml primary antibody (anti-ceramide clone 15B4 mouse IgM, Alexis; anti-PAR-4 rabbit IgG, Santa Cruz; anti-PCNA rabbit IgG, Santa Cruz; anti-nestin clone 401 rat IgG, BD Pharmingen) in 0.1% ovalbumin/PBS, followed by incubation with the appropriate fluorescence-labeled secondary antibody (5 μg/ml Alexa 546 conjugated anti-mouse IgG, Molecular Probes; Alexa 488 conjugated anti-rabbit IgG, Molecular Probes, Cy3 conjugated anti-mouse IgM, Jackson) for 2 hours at 37° C. The nuclei were stained by treatment with 2 μg/ml Hoechst 33258 in PBS for 30 minutes at room temperature. Apoptotic nuclei were stained using the fluorescein FragEL TUNEL assay (Oncogene) according to the manufacturer's instructions. […]

SSEA4 selected HESCs [2] = test: Neural differentiation of SSEA4 selected bulk passaged HESCs as serum free embryoid bodies with or without MEDII and S18, seeded and immunostained; format: cell-based, human
Experimental: Cultures were treated with or without 10 μM S18 from day 13 to day 17. After S18 treatment, serum free embryoid bodies were washed several times and cultured further until day 18. Serum free embryoid bodies were cut into pieces to seed down to polyornithine/laminin coated slides.
In the presence of MEDII, a consistently high proportion of the culture contained TH+ neurons, with the background of non-neural regions that was negative for the neuronal marker βIII-Tubulin typically lower than 10%. It was not determined whether the effect of MEDII induced more efficient neuralization or inhibited the generation of non-neural cell types. […] This proportion was determined by analysis of double staining of neural extensions for βIII-Tubulin and TH (FIG. 18), and overlaying Hoffman images with TH immunofluorescence (FIG. 19). The increase in the proportion of TH+ neurons in MEDII treated differentiations appeared to be due to the overall increase in neuronal differentiation, rather than an effect on the proportion of neurons that were dopaminergic, because the proportions of neurons that were TH+ in differentiations not exposed to MEDII was equally high. Another marker of DA cells, VMAT, was expressed in similarly high proportions of cells within the sfEBM cultures. TH+/VMAT−, TH−/VMAT+ and TH+/VMAT+ cells were observed (FIG. 20), possibly indicating temporal variability in the induction of expression of these markers prior to being co-expressed.

SSEA4 selected HESCs [3] = test: Differentiation of SSEA4 selected HESCs as serum free embryoid bodies in differing media formulations (cytospin counts, immunostaining); format: cell-based, human; conditions: L-proline conditions
Experimental: Serum free embryoid bodies were cultured in suspension for 3 weeks. Morphological differences were apparent between the cultures. […] Serum free embryoid bodies were cultured in suspension, and were cut into pieces, seeded onto polyornithine/laminin coated slides at day 21 and fixed at day 25. […] This was indicative that this differentiation protocol utilizes an intrinsic neural differentiation capacity of HESC, rather than exogenous neural inducing factors.
Cytospins of disaggregated serum free embryoid bodies were performed at day 21 to enable the counting of the proportion of βIII-Tubulin or TH positive cells generated in the different media formulations. […]
To count proportions of neurons in serum free embryoid bodies, cytospins were immunostained with anti-βIII-Tubulin (Sigma, #T8660) or mouse anti-TH monoclonal antibodies (PeIFreez Biologicals, #P80101-0), detected with alexa-488 conjugated anti-mouse secondary antibody and nuclei were stained with DAPI. Two color fluorescent images were taken under 10× magnification and merged, and double positive signals were scored as neuronal cell bodies, or TH+ neuronal cell bodies against the total nuclei count. A minimum of three randomly sampled fields and 250 or 100 nuclei for βIII-Tubulin or TH, respectively, were counted for each condition. […]

SSEA4 selected HESCs [4] = conditions: 4 ng/ml FGF2 and 100 μM proline
Experimental: Essentially serum free embryoid bodies were generated from bulk passaged monolayer HESC colonies as described in Example 6, in the presence of 4 ng/ml FGF2 and 100 μM Proline, or in 4 ng/ml FGF2 with MEDII conditioned medium as a positive control.
Serum free embryoid bodies were cultured in suspension for 17 days, and were cut into pieces and seeded onto polyornithine/laminin coated slides at day 10 or 17. The explants were cultured on slides for 5 days prior to fixation at day 15 or 22, for immunostaining with anti-βIII-Tubulin and anti-Tyrosine Hydroxylase antibodies.

SSEA4 selected HESCs [5] = system: SSEA4 selected HESCs
From the text: Essentially serum free embryoid bodies were generated from bulk passaged monolayer HESC colonies as described in Example 6, in the presence of the media set out below.

[6] = system: Mouse neuroblastoma (F-11) cells; test: Induction of apoptosis in mouse neuroblastoma cells (Hoechst 33258 staining of condensed nuclei); format: cell-based; conditions: 24 hours
Experimental: Mouse neuroblastoma (F-11) cells were incubated for 24 hours in 0.1, 0.2, 0.5, or 1.0 μM of laurylgallate (Aldrich). Apoptosis was determined by punctate staining of condensed nuclei with Hoechst 33258 (Sigma, […] medium for 30 minutes at room temperature).

Compound: CCCCCCCCCCCCC/C=C/[C@@H](O)[C@H](CO)NC(C)=O [C2-ceramide, N-acetyl sphingosine, reference compound]
- TUNEL stained cells ([1]; EB8 stage): 45±10%
- TUNEL stained cells ([1]; NP2 stage): 70±10%

Compound: FGF2: fibroblast growth factor 2
- area of seeded serum free embryoid body containing TH+ neurons (SSEA4 selected HESCs [2]; 10 μM S18 day 13 to 17, seeded day 18, fixed day 23): 30-70%
- proportion of neurons expressing TH (SSEA4 selected HESCs [2]; βIII-Tubulin/TH double staining, seeded day 18, fixed day 23): very high proportion

Compound: O=C(O)[C@@H]1CCCN1 [proline, L-proline]
- TH+ neurons, of the cells in an embryoid body in suspension (SSEA4 selected HESCs [3]): greater than 50%
- seeded EB pieces that did not exhibit large networks of βIII-Tubulin+ cells (SSEA4 selected HESCs [4]): less than 30%
- neurons generated that were dopaminergic (co-expressing βIII-Tubulin and TH) (SSEA4 selected HESCs [4]; day 22): greater than 90%
- maintained in a proliferative state after proliferation of neural rosette structures (SSEA4 selected HESCs [5]; 50 μM L-proline): 34 weeks
- maintained in a proliferative state in suspension culture after initial derivation (SSEA4 selected HESCs [5]; 50 μM L-proline): more than 7 weeks
- appearance of sfEBPs with low cell death and distinct neural rosette structures/folds (SSEA4 selected HESCs [5]; 50 μM Proline condition, around 3 weeks): noticeably enhanced

Compound: CCCCCCCCCCCCOC(=O)c1cc(O)c(O)c(O)c1 [laurylgallate, n-dodecyl ester of 3,4,5-trihydroxybenzoic acid]
- cells undergoing apoptosis ([6]; 0.5 μM): 50%
- cells undergoing apoptosis ([6]; 1.0 μM): 100%

Compound: CCCCCCCCCCCCCCCC(=O)NC(CO)CO [S16, N-(2-hydroxy-1-(hydroxymethyl)ethyl)-palmitoylamide]
- TUNEL stained cells ([1]; EB8 stage): 45±10%
- TUNEL stained cells ([1]; NP2 stage): 70±10%
